From patent US8124634B2, “CB1 receptor modulators” (7TM Pharma A/S, priority 2006, dated 2012)

Molecular target: T1, human CB1 receptor (Homo sapiens, UniProt P21554)
T1 construct: expressed in transfected cells; membranes
Test: Cannabinoid Receptor-1 functional assay: inhibition of CP55940-induced [35S]GTPγS binding to membranes of CHO-K1 cells expressing human CB1
Type: biochemical
Settings: 3 nM CP55940, hCB1 membranes, [35S]GTPγS SPA; read-out: IC50 value for antagonizing a CB1 receptor agonist
Description: Transfection and Cell Culture—The cDNA encoding the human CB1 (Cannabinoid Receptor-1) receptor (GenBank accession number NM_016083) was cloned from a human adipose tissue cDNA library and cloned into the eukaryotic expression vector pcDNA3.1 (Invitrogen).
Chinese Hamster Ovary cells (CHO-K1) stably expressing recombinant human CB1 were generated by transfecting the plasmid containing the coding sequence of the human CB1 receptor in CHO-K1 cells, using lipofectamin, according to the manufacturer instructions. Resistant clones were selected in the presence of 600 μg/ml G418 (Life technology). Stably transfected CHO-K1 cells were maintained in Ham's F-12 culture medium (Invitrogen), supplemented with 10% fetal calf serum (Invitrogen), 100 U/ml penicillin, 100 μg/ml streptomycin (Life Technology), and 600 μg/ml G418.
Cannabinoid Receptor-1 Functional Assay.
Functional activities of the above examples of compounds of the invention were assessed in vitro by measuring their ability to inhibit CP55940-induced [^35S]GTPγS binding to membranes prepared from CHO-K1 cells expressing the human CB1 receptor (described in Transfection and Cell Culture). CP55940 is a well known non-selective CB1 and CB2 receptor agonist (e.g Felder et al., 1995, Molecular Pharmacology, (48) 443-50). Membranes were prepared by a standard procedure. Briefly, cells were harvested using 10 mM EDTA and collected by centrifugation. Pelleted cells were homogenized in ice-cold 20 mM Hepes (pH 7.4),10 mM EDTA and protease inhibitors (Complete protease inhibitor cocktail tablet, Roche) using an Ultra Turrax Homogenizer. The homogenate was centrifuged at 14 000 rpm for 45 min. at 4° C. The resultant pellet was resuspended in the same buffer but with only 0.1 mM EDTA and was again centrifuged at 14 000 rpm for 45 min. at 4° C. The resulting pellet (membranes) was resuspended in 20 mM Hepes (pH 7.4), 0.1 mM EDTA, 2 mM MgCl2 and protease inhibitors and protein concentration was determined by Micro BCA Protein Assay Reagent Kit (Pierce Biotechnology) according to the manufacturer instructions. The [^35S]GYPγS SPA (Scintillation Proximity Assay) binding assay was performed by incubating 5 μg/well hCB1-membranes with 1 nM [^35S]GYPγS (Perkin Elmer—NEG 030H) in the presence of 3 nM of CP55940 and various concentrations of the test compounds at room temperature for 1 hr in 96-well microtiter plates. 0.4 mg/well SPA beads (PVT-WGA; RPNQ0001 Amersham Pharmacia Biotech) were then added and the incubation continued for further 30 min. on an orbital shaker. The assay buffer contained 50 mM HEPES (pH 7.5), 50 mM NaCl, 2.5 mM MgCl2, 0.1% BSA, 1 μM GDP and 100 μg/ml Saponin. Microtiter plates were centrifuged at 1500 rpm for 5 min. and radioactivity was read immediately using a Topcounter (PerkinElmer Life Sciences). Data were analyzed and IC50 values determined by non-linear regression using the Prism software (GraphPad Software, San Diego).

T1 sequence (P21554 whole entry): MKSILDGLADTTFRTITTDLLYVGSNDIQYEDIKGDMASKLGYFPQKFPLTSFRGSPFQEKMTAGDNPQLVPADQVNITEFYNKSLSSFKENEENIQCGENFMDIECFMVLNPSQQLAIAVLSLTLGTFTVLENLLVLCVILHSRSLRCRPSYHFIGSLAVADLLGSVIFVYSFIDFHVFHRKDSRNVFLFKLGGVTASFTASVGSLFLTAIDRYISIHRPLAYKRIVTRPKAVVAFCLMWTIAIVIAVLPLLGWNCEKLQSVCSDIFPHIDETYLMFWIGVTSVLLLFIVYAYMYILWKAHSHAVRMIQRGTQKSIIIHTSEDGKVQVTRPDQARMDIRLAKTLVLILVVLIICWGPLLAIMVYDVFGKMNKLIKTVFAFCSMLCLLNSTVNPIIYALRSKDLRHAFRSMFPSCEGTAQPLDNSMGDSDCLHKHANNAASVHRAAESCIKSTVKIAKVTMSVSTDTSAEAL

| Compound | IC50 |
| --- | --- |
| C[C@@H](NC(=O)c1nn(-c2ccccc2Cl)c(-c2ccc(Cl)cc2)c1OCC(=O)O)c1ccc(C(F)(F)F)cc1 [Compound [1.3], {1-(2-Chloro-phenyl)-5-(4-chloro-phenyl)-3-[(R)-1-(4-trifluoromethyl-phenyl)-ethylcarbamoyl]-1H-pyrazol-4-yloxy}-acetic acid] | < 300 nM |
| CC(C(=O)O)c1c(C(=O)N(C)[C@H](C)c2ccc(C(F)(F)F)cc2)nn(-c2ccccc2Cl)c1-c1ccc(Cl)cc1 (stereo partly drawn) [Compound [1.11], 2-{1-(2-Chloro-phenyl)-5-(4-chloro-phenyl)-3-{methyl-[(R)-1-(4-trifluoromethyl-phenyl)-ethyl]-carbamoyl}-1H-pyrazol-4-yl}-propionic acid] | < 300 nM |
| C[C@@H](Oc1c(C(=O)N[C@H](C)c2ccc(Br)cc2)nn(-c2ccccc2Cl)c1-c1ccc(Cl)cc1)C(=O)O [[1.4], (R)-2-[3-[(R)-1-(4-Bromo-phenyl)-ethylcarbamoyl]-1-(2-chloro-phenyl)-5-(4-chloro-phenyl)-1H-pyrazol-4-yloxy]-propionic acid] | < 300 nM |
| C[C@@H](NC(=O)c1nn(-c2ccccc2Cl)c(-c2ccc(Cl)cc2)c1CC(=O)O)c1ccc(C(F)(F)F)cc1 [[1.5], {1-(2-Chloro-phenyl)-5-(4-chloro-phenyl)-3-[(R)-1-(4-trifluoromethyl-phenyl)-ethylcarbamoyl]-1H-pyrazol-4-yl}-acetic acid] | < 300 nM |
| CC(c1ccc(S(C)(=O)=O)cc1)N(C)C(=O)c1nn(-c2ccccc2Cl)c(-c2ccc(Cl)cc2)c1CC(=O)O (stereo not drawn) [[1.8], (1-(2-Chloro-phenyl)-5-(4-chloro-phenyl)-3-{methyl-[1-(4-methylsufonyl-phenyl)-ethyl]-carbamoyl}-1H-pyrazol-4-yl)-acetic acid] | 300 to 3000 nM |
| CC(C)(Cc1ccccc1)NC(=O)c1nn(-c2ccccc2Cl)c(-c2ccc(Cl)cc2)c1Cc1nnn[nH]1 [[2.2], 1-(2-Chloro-phenyl)-5-(4-chloro-phenyl)-4-(1H-tetrazol-5-ylmethyl)-1H-pyrazole-3-carboxylic acid (1,1-dimethyl-2-phenyl-ethyl)-amide] | < 300 nM |
| C[C@@H](NC(=O)c1nn(-c2ccccc2Cl)c(-c2ccc(Cl)cc2)c1Cc1nn[nH]n1)c1ccc(Br)cc1 [[2.3], 1-(2-Chloro-phenyl)-5-(4-chloro-phenyl)-4-(1H-tetrazol-5-ylmethyl)-1H-pyrazole-3-carboxylic acid [(R)-1-(4-bromo-phenyl)-ethyl]-amide] | < 300 nM |
| C[C@H](NC(=O)c1nn(-c2ccccc2Cl)c(-c2ccc(Cl)cc2)c1Cc1nnn[nH]1)c1ccc(Br)cc1 [[2.4], 1-(2-Chloro-phenyl)-5-(4-chloro-phenyl)-4-(1H-tetrazol-5-ylmethyl)-1H-pyrazole-3-carboxylic acid [(S)-1-(4-bromo-phenyl)-ethyl]-amide] | 300 to 3000 nM |
| CC(C)(Cc1ccc(F)cc1)NC(=O)c1nn(-c2ccccc2Cl)c(-c2ccc(Cl)cc2)c1Cc1nn[nH]n1 [[2.5], 5-(4-Chloro-phenyl)-1-(2-chloro-phenyl)-4-(2H-tetrazol-5-ylmethyl)-1H-pyrazole-3-carboxylic acid [2-(4-fluoro-phenyl)-1,1-dimethyl-ethyl]-amide] | < 300 nM |
| C[C@@H](NC(=O)c1nn(-c2ccccc2Cl)c(-c2ccc(Cl)cc2)c1Cc1nn[nH]n1)c1ccc(C(F)(F)F)cc1 [[2.6], 5-(4-Chloro-phenyl)-1-(2-chloro-phenyl)-4-(2H-tetrazol-5-ylmethyl)-1H-pyrazole-3-carboxylic acid [(R)-1-(4-trifluoromethyl-phenyl)-ethyl]-amide] | < 300 nM |

Further lines, results first:

| IC50 | Compound |
| --- | --- |
| < 300 nM | CC(C)(NC(=O)c1nn(-c2ccccc2Cl)c(-c2ccc(Cl)cc2)c1CC(=O)O)c1ccc(F)cc1 [Compound [1.1], {1-(2-Chloro-phenyl)-5-(4-chloro-phenyl)-3-[1-(4-fluoro-phenyl)-1-methyl-ethylcarbamoyl]-1H-pyrazol-4-yl}-acetic acid] |
| < 300 nM | C[C@H](c1ccc(C(F)(F)F)cc1)N(C)C(=O)c1nn(-c2ccccc2Cl)c(-c2ccc(Cl)cc2)c1CC(=O)O [Compound [1.7], (1-(2-Chloro-phenyl)-5-(4-chloro-phenyl)-3-{methyl-[(R)-1-(4-trifluoromethyl-phenyl)-ethyl]-carbamoyl}-1H-pyrazol-4-yl)-acetic acid] |
| < 300 nM | C[C@H](c1ccc(C(F)(F)F)cc1)N(C)C(=O)c1nn(-c2ccccc2Cl)c(-c2ccc(Cl)cc2)c1C(O)C(=O)O (stereo partly drawn) [Compound [1.12], (1-(2-Chloro-phenyl)-5-(4-chloro-phenyl)-3-{methyl-[(R)-1-(4-trifluoromethyl-phenyl)-ethyl]-carbamoyl}-1H-pyrazol-4-yl)-2-hydroxyacetic acid] |
| < 300 nM | CC(NC(=O)c1nn(-c2ccccc2Cl)c(-c2ccc(Cl)cc2)c1Cc1nnn[nH]1)c1ccc(Br)cc1 (stereo not drawn) [Compound [2.1], 1-(2-Chloro-phenyl)-5-(4-chloro-phenyl)-4-(1H-tetrazol-5-ylmethyl)-1H-pyrazole-3-carboxylic acid [1-(4-bromo-phenyl)-ethyl]-amide] |
| < 300 nM | C[C@@H](NC(=O)c1nn(-c2ccccc2Cl)c(-c2ccc(Cl)cc2)c1OCc1nnn[nH]1)c1ccc(C(F)(F)F)cc1 [Compound [3.1], 1-(2-Chloro-phenyl)-5-(4-chloro-phenyl)-4-(1H-tetrazol-5-ylmethoxy)-1H-pyrazole-3-carboxylic acid [(R)-1-(4-trifluoromethyl-phenyl)-ethyl]-amide] |
| 300 to 3000 nM | C[C@H](Oc1c(C(=O)N[C@H](C)c2ccc(Br)cc2)nn(-c2ccccc2Cl)c1-c1ccc(Cl)cc1)C(=O)O [[1.2], (S)-2-[3-[(R)-1-(4-Bromo-phenyl)-ethylcarbamoyl]-1-(2-chloro-phenyl)-5-(4-chloro-phenyl)-1H-pyrazol-4-yloxy]-propionic acid] |
| < 300 nM | C[C@@H](NC(=O)c1nn(-c2ccccc2Cl)c(-c2ccc(Cl)cc2)c1CC(=O)O)c1ccc(Br)cc1 [[1.6], [3-[(R)-1-(4-Bromo-phenyl)-ethylcarbamoyl]-1-(2-chloro-phenyl)-5-(4-chloro-phenyl)-1H-pyrazol-4-yl]-acetic acid] |
| < 300 nM | C[C@H](c1ccc(OC(F)(F)F)cc1)N(C)C(=O)c1nn(-c2ccccc2Cl)c(-c2ccc(Cl)cc2)c1CC(=O)O [[1.9], (1-(2-Chloro-phenyl)-5-(4-chloro-phenyl)-3-{methyl-[(R)-1-(4-trifluoromethoxy-phenyl)-ethyl]-carbamoyl}-1H-pyrazol-4-yl)-acetic acid] |
| 300 to 3000 nM | CC(C)(NC(=O)c1nn(-c2ccccc2Cl)c(-c2ccc(Cl)cc2)c1Cc1nnn[nH]1)c1ccc(F)cc1 [[2.7], 1-(2-Chloro-phenyl)-5-(4-chloro-phenyl)-4-(1H-tetrazol-5-ylmethyl)-1H-pyrazole-3-carboxylic acid [1-(4-fluoro-phenyl)-1-methyl-ethyl]-amide] |
| < 300 nM | C[C@@H](NC(=O)c1nn(-c2ccccc2Cl)c(-c2ccc(Cl)cc2)c1Cc1nnn[nH]1)c1ccc(F)cc1 [[2.8], 1-(2-Chloro-phenyl)-5-(4-chloro-phenyl)-4-(1H-tetrazol-5-ylmethyl)-1H-pyrazole-3-carboxylic acid [(R)-1-(4-fluoro-phenyl)-ethyl]-amide] |
| < 300 nM | C[C@@H](NC(=O)c1nn(-c2ccccc2Cl)c(-c2ccc(Cl)cc2)c1Cc1nnn[nH]1)c1ccc(Cl)cc1 [[2.9], 1-(2-Chloro-phenyl)-5-(4-chloro-phenyl)-4-(1H-tetrazol-5-ylmethyl)-1H-pyrazole-3-carboxylic acid [(R)-1-(4-chloro-phenyl)-ethyl]-amide] |
